B1: M-CSF (Q20A, V78K): double mutant of M-CSF testing solvent accessible residues in the central portion of helices A and C (protein, UniProt P09603 33-554, looked up, variant Q20A V78K)
Macrophage colony-stimulating …: EEVSEYCSHMIGSGHLQSLARLIDSQMETSCQITFEFVDQEQLKDPVCYLKKAFLLVQDIMEDTMRFRDNTPNAIAIKQLQELSLRLKSCFTKDYEEHDKACVRTFYETPLQLLEKVKNVFNETKNLLDKDWNIFSKNCNNSFAECSSQDVVTKPDCNCLYPKAIPSSDPASVSPHQPLAPSMAPVAGLTWEDSEGTEGSSLLPGEQPLHTVDPGSAKQRPPRSTCQSFEPPETPVVKDSTIGGSPQPRPSVGAFNPGMEDILDSAMGTNWVPEEASGEASEIPVPQGTELSPSRPGGGSMQTEPARPSNFLSASSPLPASAKGQQPADVTGTALPRVGPVRPTGQDWNHTPQKTDHPSALLRDPPEPGSPRISSLRPQGLSNPSTLSAQPQLSRSHSSGSVLPLGELEGRRSTRDRRSPAEPEGGPASEGAARPLPRFNSVPLTDTGHERQSEGSFSPQLQESVFHLLVPSVILVLLAVGGLLFYRWRRRSHQEPQRADSPLEQPEGSPLTQDDRQVELPV

Tests used:
[1] = system: osteoclasts differentiated from human bone marrow CD34+ cells; experiment: Differentiated osteoclast activity, OsteoLyse Assay Kit (Human Collagen) (FIGS. 18, 19); assay type: cell-based; settings: added on day 15, supernatant sampled on day 17
Method: The human bone marrow CD34+ cells (Biowhittaker catalog number 2M-101 A, 3×10^5 cells/vial) were induced to differentiate into osteoclasts under the experimental conditions described here. On Day 1, CD34+ cells were thawed from one frozen vial into 10 ml of media (Alpha MEM with 10% FCS, 1×Pen Strep and 1×fungizone) The cells were washed once and re-suspended in 2 ml of media and plate into onto the OsteoLyse plate (OsteoLyse™ Assay Kit (Human Collagen), Cambrex) at 100 ul per well. On day 2, without removing the original media, add to each well 50 ul of 4×CSF-1 to 30 ng/ml final concentration and 50 ul of 4×RANKL (sRANKL, Chemicon catalog #GF091, 10 ug/package) to final concentration of 100 ng/ml. On day 7, add to each well 50 ul of 5×RANKL to final concentration of 100 ng/ml. On day 15, antibodies (either Chir-RX1 or control antibody) or Zometa were added at the indicated concentrations. On day 17, 10 ul of supernatant of the cell culture was sampled and mixed with 200 μl of Fluorophore Releasing Reagent in each well of the black 96-well assay plate (included in the OsteoLyse Assay Kit).

[2] = system: osteolytic damage caused by tumor growth at the bony site; experiment: Zometa dose-response study, osteolysis caused by tumor growth at the bony site (x-ray osteolysis score, FIG. 14); assay type: in vivo, mice
Excerpt: This Example establishes the dose-dependent, anti-resorptive effects of Zometa (zoledronate) in an animal model (FIG. 14). […] Osteolysis score based on x-ray image in last-day of study (FIG. 14):
(§1) 1=Equivocal or minimal lesion with normal cortex architecture;
(§2) 2=Definite lytic lesion with minimal cortex/architecture disruption
(§3) 3=Large lesion(s) with cortex/Architecture disruption
(§4) 4=Gross destruction with no preserved architecture

[3] = system: MDA-MB-231Luc cells; experiment: Combination study: intratibial MDA-MB-231Luc cells in Nu/Nu mice, Faxitron x-ray osteolysis scoring (FIGS. 15-17); assay type: in vivo
Method: Two weeks after intratibial inoculation of 6×10^5 MDA-MB-231Luc cells, Nu/Nu mice were treated with 5A1/5B4 (10 mg/kg once weekly), Zometa (0.03 mg/kg twice weekly) or both antibody and bisphosphonate. Bone lesions were monitored weekly by Faxitron analysis (x-ray technology), and at the end of the study, all animals were subjected to a final x-ray, and the images collected and distributed for scoring of the severity of lesions.
Mean osteolysis scores were calculated from 1) an average of scores from 3 separate volunteer scorers and 2) a group average (originally 10 animals/group).
Osteolysis score based on x-ray image in last day of study:
as §1, §2, §3, §4

[4] = system: M-CSF biological activity; settings: cited from earlier work
[5] = system: MCSF-R; settings: cited from earlier work

| Molecule | differentiated osteoclast activity [1] | dose response of anti-resorptive effect ([2]; mice treated with increasing concentrations of Zometa) | osteolytic damage caused by tumor growth at the bony site (osteolysis score based on x-ray image) ([2]; ≧0.03 mg/kg Zometa, last day of study, FIG. 14) | osteolytic damage caused by tumor growth at the bony site (mean osteolysis scores, FIG. 16) ([3]; 0.03 mg/kg Zometa, 10 mg/kg anti-MCSF antibody, combination regimen, last day of study) | treating osteolysis (single agents) ([3]; antibody 10 mg/kg once weekly, Zometa 0.03 mg/kg twice weekly, treatment from two weeks after inoculation) | severity of lesions in representative faxitron images (FIG. 17) ([3]; compared to untreated animals) | biological activity, lower than native M-CSF [4] | receptor-binding activity [5] |
| --- | --- | --- | --- | --- | --- | --- | --- | --- |
| O=P(O)(O)C(O)(Cn1ccnc1)P(=O)(O)O [Zometa, zoledronate] | inhibits differentiated osteoclast activity in a dose-dependent manner | a dose response effect was observed | inhibited the osteolytic damage | inhibited the osteolytic damage | effective in treating osteolysis | relatively minor lesions |  |  |
| B1 |  |  |  |  |  |  | 8-10 fold | correspondingly lower |

From patent US20090246208A1, “METHODS FOR PREVENTING AND TREATING CANCER METASTASIS AND BONE LOSS ASSOCIATED WITH CANCER METASTASIS” (Novartis AG, priority 2006, published 2009)
